Entries after “also recorded” stand apart in the source; their conditions may differ. Like-named read-outs stand apart in the source and are kept apart here.
How the values were obtained:
[1] = system: Stat3 phosphorylation (p-Tyr705) induced by IL-6 in LNCaP prostate cancer cells; experiment: IL-6 induced Stat3 phosphorylation in LNCaP cells, Western blot; format: cell-based; settings: for inhibition of Stat3 phosphorylation induced by IL6: Western blot; for relative potency of inhibition of Stat3 phosphorylation: comparison in words
Procedure: LNCaP prostate cancer cells were acquired from American Type Culture Collection. Cells were maintained in RPMI 1640 medium, 1× with 4.5 g/L L-glutamine, supplemented with 10% FBS, 100 U/ml penicillin and […] streptomycin (Invitrogen), in a humidified atmosphere of 5% CO2 at 37° C.
LNCaP prostate cancer cells were seeded in T75 flasks, grown to 50% confluence and serum-starved the following night. The cells were left untreated or were treated with MDL-A (100-400 μM), 1, 2 (5-40 μM) or DMSO in the absence of FBS. After 4 hours, the cells were stimulated with 12.5 ng/ml IL-6 (Cell Signaling Technology). The cells were then harvested at 30 minutes and washed with PBS and lysed in cold M-PER lysis buffer (Pierce) containing protease inhibitors (Sigma) and phosphatase inhibitors (Roche). Lysates were centrifuged at 14,000 rpm for 15 minutes at 4° C. and supernatants were collected and stored at −20° C. until further use.
Cell lysates were assayed for their protein concentrations using the Bradford protein assay reagent (Pierce), using BSA (Fisher Scientific) as the standard. Lysate samples were adjusted for the same protein concentration, approximately 5 μg of sample protein was loaded into each of the appropriate lanes. Protein samples were separated by SDS-PAGE and electrotransferred to PVDF membranes. The membranes were washed and blocked with 5% BSA in TBST (60 mM Tris-base, 120 mM NaCl, 0.1% Tween-20) for at least one hour and incubated with anti-phospho-STAT3 (p-Tyr705) antibody, anti-STAT3 antibody or anti-GAPDH antibody (all from Cell Signaling Technology) in 5% BSA in TBST overnight at 4° C. Blots were then washed three times in TBST and incubated with a horseradish peroxidase-conjugated goat anti-rabbit IgG secondary antibody (Cell Signaling Technology) in 5% BSA in TBST for 1 hour at room temperature. The bound antibody was detected using Enhanced Chemiluminescence detection reagents (Pierce) according to the manufacturer's instructions and chemiluminescence visualized using ECL Hyperfilm (Amersham).

[2] = system: nuclear translocation of STAT3 in MCF-7 cells; experiment: Immunofluorescence of IL6-activated STAT3 nuclear translocation in MCF-7 cells; format: cell-based
[3] = target: T1, gp130 extracellular domain (recombinant gp130-Fc-HA) (Homo sapiens, UniProt P40189); experiment: Surface plasmon resonance direct binding to gp130-Fc-HA; settings: for binding in SPR direct binding assay, comparison in words: relative to MDL-A or to other analogues
T1 construct: purified gp130 (amino residue 18-615); made in house; host or cells: HEK293T (plasmid from Dr. John J. Krolewski)
T1 sequence (P40189 18-615): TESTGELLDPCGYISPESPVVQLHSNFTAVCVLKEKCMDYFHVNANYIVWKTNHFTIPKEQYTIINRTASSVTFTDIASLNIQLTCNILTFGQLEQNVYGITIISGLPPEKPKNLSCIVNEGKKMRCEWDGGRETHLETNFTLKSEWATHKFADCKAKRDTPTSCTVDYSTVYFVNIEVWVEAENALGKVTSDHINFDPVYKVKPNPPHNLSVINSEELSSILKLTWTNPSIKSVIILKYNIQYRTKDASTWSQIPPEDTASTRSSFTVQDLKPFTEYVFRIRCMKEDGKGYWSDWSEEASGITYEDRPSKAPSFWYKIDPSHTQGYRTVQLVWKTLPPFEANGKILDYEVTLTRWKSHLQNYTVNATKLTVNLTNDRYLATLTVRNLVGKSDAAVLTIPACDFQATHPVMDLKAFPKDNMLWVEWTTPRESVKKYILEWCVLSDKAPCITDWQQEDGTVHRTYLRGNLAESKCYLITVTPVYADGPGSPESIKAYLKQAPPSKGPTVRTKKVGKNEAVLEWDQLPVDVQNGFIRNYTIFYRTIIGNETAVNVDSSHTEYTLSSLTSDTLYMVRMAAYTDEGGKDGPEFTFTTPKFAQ
Procedure: HEK293T cells were grown in media containing DMEM+10% fetal bovine serum (FBS),100 U/ml penicillin and […] streptomycin (Invitrogen) in a humidified 37° C. incubator with 5% CO2. Plasmid DNA expressing gp130-Fc-HA was transfected in the form of calcium phosphate precipitate into HEK293T cells (ten T75 flasks containing 5.5×10^6 cells). The supernatant was harvested sixty hours post transfection and centrifuged to remove residual cells and adjusted to pH 8.0. The supernatant was passed through a 0.45 μm filter. The gp130-Fc-HA tagged protein was immunoprecipitated using anti-HA affinity matrix (Roche Applied Bioscience).A one milliliter column containing anti-HA affinity matrix was equilibrated with 20 mM Tris-HCl, 0.1M NaCl, 0.1 mM EDTA (pH 8.0). The supernatant was applied to the equilibrated column and the column was washed successively with 20 mM Tris-HCl, 1M NaCl (pH 8.0). Bound protein was eluted with HA peptide dissolved in equilibration buffer. The column was regenerated with 0.1 M glycine (pH 2.0). Fractions containing recombinant protein were pooled, dialyzed against HBS buffer [10 mM HEPES (pH 7.4), 0.15 M NaCl, 3 mM EDTA, 0.005% P20] and concentrated by Centricon 30 (Amicon) centrifugation. Protein concentration was determined using Bradford protein assay reagent (Pierce), with bovine serum albumin (BSA, Fisher Scientific) as a standard. The purified recombinant gp130 protein was analyzed using SDS-PAGE and immunoblotting.
Surface plasmon resonance (SPR) analysis was performed using BIAcore T100. Recombinant gp130-Fc-HA was cross-linked to the flow cell on a carboxymethylated dextran matrix of a CM5 sensor chip (BIAcore) using standard amino group coupling methods according to the manufacturer's instructions. Sodium acetate (10 mM, pH 3.5) gave the best immobilization of the protein on the chip surface and unreactive groups on the chip were blocked by ethanolamine according to the manufacturer's instructions. Approximately 5000 resonance units (RU) of gp130-Fc-HA were cross-linked to the flow cell. HBS+1% DMSO were used in all buffers (running and sample) to avoid background response due to differences in buffer refractive index. For the equilibrium analysis, various concentrations of MDL-A, 1, and 2 were injected for a period of 2 min at a flow rate of 30 μl/min, in series, into flow cells containing covalently bound gp130-fc-HA and reference flow cell. Bound ligand (MDL-A, 1, and 2) in each assay was removed by passing 10 mM glycine (pH 2.2) over the chip surface. Biacore T100 Evaluation 2.0 was used for all interaction analyses. The steady-state equilibrium response (RUeq) was determined from the reference-subtracted sensogram. The kinetics parameter was calculated according to a 1:1 Langmuir binding model (A+B ? AB) by direct fitting of ligand binding sensor grams at multiple concentrations. The dissociation equilibrium constant is defined as dissociation constant (KD)=dissociation rate constant (kd)/association rate constant (ka). KD was determined by scattered analysis of equilibrium-state data obtained at different concentrations of analogues.
To examine the direct binding and calculation of equilibrium dissociation constant (KD) of MDL-A analogues with gp130 extracellular domain, surface plasmon resonance analysis was done. Protein was covalently cross linked to the dextran matrix of the biosensor chip CM5. Successively, various concentrations of MDL-A and MDL-A analogues were injected into the flow cells containing bound protein and no protein (reference). Interactions were monitored in real time and KD values were calculated by reference-substrated sensogram.
To examine the direct binding and calculate the equilibrium dissociation constant (KD) of MDL-A analogues with gp130 extracellular domain, surface plasmon resonance analysis was performed. Surface plasmon resonance (SPR) analysis was performed using a BIAcore T100. […]

[4] = system: Stat3 phosphorylation (p-Tyr705) induced by IL-6 in LNCaP prostate cancer cells; experiment: IL-6 induced Stat3 phosphorylation in LNCaP cells, Western blot; format: cell-based; settings: IL-6 12.5 ng/ml 30 min
[5] = system: LIF mediated STAT3 phosphorylation; experiment: LIF induced phosphorylation of STAT3 (FIG. 34); format: cell-based
[6] = system: IL6 mediated STAT3 phosphorylation; experiment: IL6 induced phosphorylation of STAT3 (FIG. 34); format: cell-based
[7] = system: SUM-159 breast cancer cells tumor xenograft; experiment: Tumor xenograft model with SUM-159 breast cancer cells; format: in vivo, human; settings: 100 mg/kg, SUM-159 xenograft, vehicle DMSO
Text: The effect of a representative compound, MDL-16, on tumor progression is compared to a group treated with vehicle (DMSO).

[8] = gp130-Fc-HA on CM5 chip, BIAcore T100, read-out: SPR data (Kd μM)
[9] = gp130 extracellular domain, Biacore evaluation software 2.0, read-out: KD

SMILES	Kd [3, 8]	Kd [3, 9]	Kd ([3]; values in running text and figure legend, read-out: dissociation constant (KD))	inhibition of Stat3 phosphorylation induced by IL6 ([1]; IL-6 12.5 ng/ml 30 min)	nuclear translocation of STAT3 activated by IL6 [2]	binding in SPR direct binding assay, comparison in words [3]	inhibition of Stat3 phosphorylation induced by IL-6 at 40 µM [4]	relative potency of inhibition of Stat3 phosphorylation [1]	LIF mediated STAT3 phosphorylation [5]	inhibition of Stat3 phosphorylation induced by IL-6 at 40 µM ([1]; 40 μM compound 4 hours, IL-6 12.5 ng/ml 30 min)	IL6 mediated STAT3 phosphorylation [6]	effect on tumor progression compared to vehicle [7]
CCCCc1ccc(O)c(CN2c3ccccc3[C@]3(O)C[C@H](COC(=O)c4ccccc4)O[C@H]23)c1O (stereo in doubt) [MDL-5, ((2S,3AR)-8-(3-butyl-2,6-Dihydroxybenzyl)-3A-Hydroxy-3,3A,8,8A-Tetrahydro-2H-Furo[2,3-B]Indol-2-Yl)Methyl Benzoate]	37 µM	37 µM		dose dependent inhibition	inhibits the nuclear translocation of STAT3	stronger binding than analogues without extra attachments; also recorded: better binding than MDL-A; also recorded: better activity than MDL-A						
CCCCn1nccc1C(=O)CN1c2ccccc2[C@]2(O)CCO[C@H]12 [MDL-3]						better binding than MDL-A						
CCCCc1ccc(O)c(Cn2cc(CCO)c3ccccc32)c1O [MDL-6]	49.5 µM	49.5 µM				better binding than MDL-A; also recorded: better activity than MDL-A	completely inhibit	slightly more potent than MDL-5				
CCCCc1ccc(OC)c(Cn2cc(CCO)c3ccccc32)c1OC [MDL-8]	41.4 µM	41.4 µM				better binding than MDL-A; also recorded: better activity than MDL-A						
CCCCc1ccc(O)c(Cn2cc(C[C@H](O)COC(=O)c3ccccc3)c3ccccc32)c1O [MDL-16, (S)-3-(1-(3-Butyl-2,6-Dihydroxybenzyl)-1H-Indol-3Yl)-2-Hydroxypropyl Benzoate]	29 µM		29.7 µM	dose dependent inhibition	inhibits the nuclear translocation of STAT3	stronger binding than analogues without extra attachments; also recorded: strongest binding affinity; also recorded: better binding than MDL-A; also recorded: better activity than MDL-A		slightly more potent than MDL-5	not LIF mediated STAT3 phosphorylation	completely inhibits	inhibits IL6 mediated STAT3 phosphorylation	significant effect on tumor progress compared to vehicle

Continued, in another order:

Kd [3, 8]	Kd [3, 9]	Kd ([3]; values in running text and figure legend, read-out: dissociation constant (KD))	SMILES	inhibition of Stat3 phosphorylation induced by IL6 ([1]; IL-6 12.5 ng/ml 30 min)	nuclear translocation of STAT3 activated by IL6 [2]	binding in SPR direct binding assay, comparison in words [3]	inhibition of Stat3 phosphorylation induced by IL-6 at 40 µM [4]	relative potency of inhibition of Stat3 phosphorylation [1]	LIF mediated STAT3 phosphorylation [5]	inhibition of Stat3 phosphorylation induced by IL-6 at 40 µM ([1]; 40 μM compound 4 hours, IL-6 12.5 ng/ml 30 min)	IL6 mediated STAT3 phosphorylation [6]	effect on tumor progression compared to vehicle [7]
40.8 µM	40.8 µM		CCCCc1ccc(O)c(Cn2cc(CCO)c3cc(C(=O)OC)ccc32)c1O [MDL-7]			better binding than MDL-A; also recorded: better activity than MDL-A	completely inhibit	slightly more potent than MDL-5				
42.5 µM			CCCCc1ccc(OC)c(CN2c3ccccc3[C@]3(O)C[C@H](COC(=O)c4ccccc4)O[C@H]23)c1OC [MDL-17]			stronger binding than analogues without extra attachments; also recorded: better binding than MDL-A; also recorded: better activity than MDL-A						

— patent US20140315956A1, “SMALL MOLECULE INHIBITORS OF IL-6 AND USES THEREOF” (NATIONWIDE CHILDREN'S HOSPITAL, priority 2011, published 2014)
